From patent US6225478A, “Iridoid derivatives and neovascularization inhibitors containing the same as active ingredient” (Tsumura & Co., priority 1999, dated 2001)

system: human umbilical-vein endothelial cells (HUVEC); experiment: Tube Formation Assay (TFA) Test, HUVEC in collagen gel; format: cell-based; conditions: Homo sapiens, HUVEC, Tables 75-83; 0.32 mM sample solution; method as for Compounds 1 through 60; read-out: TFA Inhibition rate (%)
Description: Furthermore, the sample liquids of compounds used in the CPA and CMA tests were prepared in the manner described below. Firstly, after weighing out each compound, a calculated amount of DMSO was added. After dissolving the compound in the DMSO, phosphate buffered physiological saline (PBS (-)) was added to bring the sample concentration to 1 mg/ml in PBS (-). The amount of DMSO used to dissolve the compounds was adjusted in advance to that the concentration of DMSO at that time was 5%. The resulting liquids were diluted 10-fold with 5% DMSO-PBS (-) solution to prepare sample solutions having a concentration of 0.1 mg/ml. In the TFA test, 320 μl of the prepared 1 mg/ml sample solutions were removed followed by addition of 680 μl of PBS (-) to prepare samples having a concentration of […]. Moreover, 100 μl of this solution was removed followed by addition of 900 μl of PBS (-) to dilute 10-fold and prepare samples having a concentration of 1 μg/ml. P [Cell Proliferation Assay (CPA) Test]
To begin with, 8 volumes of Type 1-A cell matrix (manufactured by Gibco Co.), 1 volume of 10×M119, and 1 volume of reconstituted buffer [200 mM HEPES, 0.05 N sodium hydroxide, 260 mM sodium bicarbonate] were slowly mixed under cooling with ice while avoiding bubbling to form a collagen gel. This collagen gel was distributed in a NUNC 24-well plate at 310 μl/well followed by allowing to stand undisturbed for 2 hours at 37° C. to solidify the gel.
Next, the 7th subculture of HUVEC (1×10^5 cells/ml) obtained from the first generation in the same manner as above were disseminated at 500 μl/well. The cells were cultured for 2 hours at 37° C. to allow the cells to make contact with the collagen. After then removing the medium by aspiration, 50 μl of sample solution were added followed by addition of 310 μl/well of freshly prepared collagen gel and culturing for 1 hour and 10 minutes at 37° C. to solidify the double-layer gel.
1 ml/well of M-199 medium containing 20% FCS, 30 ng /ml of b-FGF and 0.1 μM PMA were added to the wells followed by culturing for 20 hours at 37° C. in the presence of 5% CO2.
Measurement of the lengths of the formed tubes was performed using the public domain NIH Image with a computer.
Evaluation was performed by calculating the inhibition rate (%) of tube formation according to the following formula.
Inhibition rate (%)=100-((formed tube length in presence of sample-formed tube length in presence of control (-))×100/(formed tube length in presence of control (+)-formed tube length in presence of control (-)))
(§1) Samples were prepared using the present compounds of Compound No. I-60 through I-315. More specifically, 32 μl of a 20 mM sample solution dissolved in dimethylsulfoxide (DMSO) were removed and brought to a volume of 1 ml with phosphate-buffered saline (PBS) to prepare a sample solution having a concentration of 0.32 mM (containing 3.2% DMSO).
The testing method used for these compounds was the same as that used for the compounds of Compound No. 1 through 60 previously described.

In order of rising inhibition at 320 µM (stock):
1. C=CCN(CC=C)C(=O)O[C@@H]1OC=C(C(=O)OC)[C@H]2CC=C(C)[C@@H]12 [I-125]  2.6%
2. C=CCNC(=O)O[C@@H]1OC=C(C(=O)OC)[C@H]2CC[C@H](C)[C@@H]12 [I-228]  2.7%
3. COC(=O)C1=CO[C@@H](OC(=O)N2CCCCC2)[C@@H]2C(C)=CC[C@H]12 [I-111]  2.9%
4. COC(=O)C1=CO[C@@H](OC(=O)N2CCCCC2)[C@H]2[C@@H]1CC[C@@H]2C [I-216]  3.7%
5. COC(=O)C1=CO[C@@H](OC(=O)N2CC=C(c3ccccc3)CC2)[C@@H]2C(C)=CC[C@H]12 [I-140]  5.2%
6. COC(=O)C1=CO[C@@H](OC(=O)NCCc2ccc(O)c(OC)c2)[C@H]2[C@@H]1CC[C@@H]2C [I-248]  5.7%
7. CCCCCCNC(=O)O[C@@H]1OC=C(C(=O)OC)[C@H]2CC=C(C)[C@@H]12 [I-72]  5.9%
8. COC(=O)C1=CO[C@@H](OC(=O)NCc2ccc(Cl)c(Cl)c2)[C@H]2[C@@H]1CC[C@@H]2C [I-196]  6.2%
9. COC(=O)C1=CO[C@@H](OC(=O)NC2CCCCCC2)[C@@H]2C(C)=CC[C@H]12 [I-103]  8.3%
10. COC(=O)C1=CO[C@@H](OC(=O)NCC(C)C)[C@@H]2C(C)=CC[C@H]12 [I-87]  8.6%
11. COC(=O)C1=CO[C@@H](OC(=O)Nc2cccc(C#N)c2)[C@@H]2C(C)=CC[C@H]12 [I-166]  9.1%
12. CNC(=O)O[C@@H]1OC=C(C)[C@H]2CC[C@@H](C)[C@@H]12 [I-283]  11%
13. CNC(=O)O[C@@H]1OC=C(C(=O)OC)[C@H]2CC[C@@H](C)[C@@H]12 [I-280]  14.9%
14. C[C@@]12O[C@@H]1C[C@@H]1C(C(=O)O)=CO[C@@H](OC(=O)NCCCl)[C@@H]12 [I-69]  18%
15. COC(=O)C1=CO[C@@H](OC(=O)NCC(OC)OC)[C@@H]2C(C)=CC[C@H]12 [I-96]  19.7%
16. COC(=O)C1=CO[C@@H](OC(=O)NCCO)[C@@H]2C(C)=CC[C@H]12 [I-84]  21.9%
17. COC(=O)C1=CO[C@@H](OC(=O)NCc2ccncc2)[C@H]2[C@@H]1CC[C@@H]2C [I-221]  24.5%
18. COC(=O)C1=CO[C@@H](OC(=O)NCc2ccc(OC(F)(F)F)cc2)[C@@H]2C(C)=CC[C@H]12 [I-106]  26.8%
19. CNC(=O)O[C@@H]1OC=C(C(=O)OC)[C@H]2CC=C(C)[C@@H]12 [I-174]  67%
20. COC(=O)C1=CO[C@@H](OC(=O)Nc2cccc(C(F)(F)F)c2)[C@H]2[C@@H]1CC[C@@H]2C [I-277]  84.4%

system: HUFEC; experiment: Cell Migration Assay (CMA) Test, inhibitory rate with control (-) correction; format: cell-based, human; conditions: Homo sapiens, 24 h, 125 μl of 0.32 mM sample solution in 4.0 ml medium, 80% or more = remarkable
Description: as §1
After disseminating the 7th subculture of […] obtained from the first generation at 4 ml/well (3.0×10^5 cells/well) in a collagen-coated 6-well plate (NUNC), the cells were cultured for 48 hours at 37° C. in the presence of 5% CO2. The cells reached nearly a completely confluent state as a result of this culturing.
A double-edged, disposable razor blade was divided into four sections, of which one of those sections was pinched between a pair of forceps. Using this piece of razor blade, the cell surface in the above confluent state was scraped off.
After washing the surface of the wells from which the cells had been scraped off with medium, 4.0 ml of fresh M199 (2+) medium were placed in the wells. 4.0 ml of M199 medium were added to the control (-) well.
125 μl of sample solution (0.32 mM, containing 3.2% dimethylsulfoxide) were added to the wells.
125 μl of PBS solution containing 3.2% dimethylsulfoxide were added to the control wells instead of sample. The cells were cultured for 24 hours at 37° C. in the presence of 5% CO2. After discarding the culture liquid, the cells were fixed for 30 minutes with methanol. Next, after […] the cells for 4 hours with Giemsa stain, the plates were washed with tap water and air dried.
Measurement of cell migration was performed by microscopically counting the number of cells that had newly migrated within the range of a 1 mm×1 mm block. […] The total number of cells counted in blocks 1 through 5 were then totaled to determine the overall total number of cells. Four fields were counted for each well.
Evaluation was performed determining the cell migration inhibitory rate (%) according to the following equation.
Inhibitory rate=100-((number of migrating cells to which sample was added-number of migrating cells of control (-))×100/(number of migrating cells of control (+)-number of migrating cells of control (-)))
If this inhibitory rate was 80% or more, cell migration was assessed as being remarkable.

In order of rising inhibition at 320 µM (stock):
1. COC(=O)C1=CO[C@@H](OC(=O)NCCc2ccc(O)c(OC)c2)[C@H]2[C@@H]1CC[C@@H]2C [I-248]  2.2%
2. COC(=O)C1=CO[C@@H](OC(=O)N2CC=C(c3ccccc3)CC2)[C@@H]2C(C)=CC[C@H]12 [I-140]  3.3%
3. COC(=O)C1=CO[C@@H](OC(=O)NC2CCCCCC2)[C@@H]2C(C)=CC[C@H]12 [I-103]  5.1%
4. COC(=O)C1=CO[C@@H](OC(=O)NCC(OC)OC)[C@@H]2C(C)=CC[C@H]12 [I-96]  5.9%
5. COC(=O)C1=CO[C@@H](OC(=O)NCc2ccc(OC(F)(F)F)cc2)[C@@H]2C(C)=CC[C@H]12 [I-106]  6.7%
6. C=CCNC(=O)O[C@@H]1OC=C(C(=O)OC)[C@H]2CC[C@H](C)[C@@H]12 [I-228]  7.2%
7. COC(=O)C1=CO[C@@H](OC(=O)NCC(C)C)[C@@H]2C(C)=CC[C@H]12 [I-87]  8%
8. COC(=O)C1=CO[C@@H](OC(=O)Nc2cccc(C#N)c2)[C@@H]2C(C)=CC[C@H]12 [I-166]  8.7%
9. COC(=O)C1=CO[C@@H](OC(=O)NCCO)[C@@H]2C(C)=CC[C@H]12 [I-84]  8.8%
10. CNC(=O)O[C@@H]1OC=C(C)[C@H]2CC[C@@H](C)[C@@H]12 [I-283]  9.1%
11. COC(=O)C1=CO[C@@H](OC(=O)N2CCCCC2)[C@@H]2C(C)=CC[C@H]12 [I-111]  9.4%
12. COC(=O)C1=CO[C@@H](OC(=O)N2CCCCC2)[C@H]2[C@@H]1CC[C@@H]2C [I-216]  9.4%
13. COC(=O)C1=CO[C@@H](OC(=O)Nc2cccc(C(F)(F)F)c2)[C@H]2[C@@H]1CC[C@@H]2C [I-277]  12.7%
14. CNC(=O)O[C@@H]1OC=C(C(=O)OC)[C@H]2CC=C(C)[C@@H]12 [I-174]  12.9%
15. COC(=O)C1=CO[C@@H](OC(=O)NCc2ccncc2)[C@H]2[C@@H]1CC[C@@H]2C [I-221]  15.6%
16. C=CCN(CC=C)C(=O)O[C@@H]1OC=C(C(=O)OC)[C@H]2CC=C(C)[C@@H]12 [I-125]  17.2%
17. C[C@@]12O[C@@H]1C[C@@H]1C(C(=O)O)=CO[C@@H](OC(=O)NCCCl)[C@@H]12 [I-69]  18.8%
18. COC(=O)C1=CO[C@@H](OC(=O)NCc2ccc(Cl)c(Cl)c2)[C@H]2[C@@H]1CC[C@@H]2C [I-196]  27.6%
19. CCCCCCNC(=O)O[C@@H]1OC=C(C(=O)OC)[C@H]2CC=C(C)[C@@H]12 [I-72]  42.9%
20. CNC(=O)O[C@@H]1OC=C(C(=O)OC)[C@H]2CC[C@@H](C)[C@@H]12 [I-280]  72.4%
